Reference: patent US20250127782A1, “METHODS OF TREATING CANCER” (AMGEN INC., priority 2021, published 2025)

Legend:
[1] = Phase 1 study of digoxin with sotorasib; type: in vivo, human
Description: PK parameters were estimated using non-compartmental methods. Safety and tolerability were monitored throughout the study.

CRC = assay: Study 20170543 Phase 2 CRC cohort, sotorasib monotherapy; type: in vivo, human
Description: A data snapshot was taken on Jun. 9, 2022.

KRAS G12C mutated CRC = assay: Study 20190135 Subprotocol H, sotorasib + panitumumab: safety and tolerability (DLTs, TRAEs)
Description: Accordingly, the primary endpoint will include an assessment of dose limiting toxicities, treatment-emergent and treatment-related adverse events.
The grading of AEs will be based on the guidelines provided in the CTCAE version 5.0. […] A Hy's Law case is defined as: AST or ALT values of ≥3×ULN AND with serum total bilirubin level (TBL) of >2×ULN without signs of cholestasis and with no other clear alternative reason to explain the observed liver related laboratory abnormalities.

[2] = Phase 1 study of sotorasib with omeprazole under fasted conditions; type: in vivo, human
[3] = Phase 1 study of sotorasib with famotidine or omeprazole under fed conditions; type: in vivo, human
Protocol: Safety and tolerability monitoring was performed throughout the study.

[4] = Phase 1 study of sotorasib with rifampin; type: in vivo, human
[5] = test system: extracellular signal-regulated kinase (ERK); conditions: preclinical studies; cited from earlier work
[6] = Study 20170543 (CodeBreaK 100): sotorasib monotherapy pharmacokinetics; conditions: for AUC(0-t): AUC0-24h
[7] = Study 20190135 Subprotocol H: sotorasib pharmacokinetics in combination with panitumumab
[8] = Phase 1 study of midazolam with sotorasib; conditions: 2 mg midazolam with 960 mg sotorasib after 14 days of daily sotorasib vs midazolam alone; 5 subjects
[9] = 0.5 mg digoxin coadministered with 960 mg sotorasib
[10] = with a single dose of sotorasib vs digoxin alone
[11] = Aug. 6, 2021 data cut, 31 patients on the combination
[12] = Jun. 24, 2022 data cut-off, 40 patients on the combination
[13] = with omeprazole vs sotorasib alone, fasted state
[14] = famotidine 10 hours prior to and 2 hours after a single dose of sotorasib
[15] = repeat doses of omeprazole with a single dose of sotorasib
[16] = 960 mg sotorasib with single dose of 600 mg rifampin
[17] = human, plasma, oral, day 1, monotherapy (CodeBreaK 100), comparison in Aug. 6, 2021 data cut
[18] = Jun. 24, 2022 data cut-off, combination therapy with panitumumab (n=35)

C[C@H]1O[C@@H](O[C@H]2[C@@H](O)C[C@H](O[C@H]3[C@@H](O)C[C@H](O[C@H]4CC[C@@]5(C)[C@H](CC[C@@H]6[C@@H]5C[C@@H](O)[C@]5(C)[C@@H](C7=CC(=O)OC7)CC[C@]65O)C4)O[C@@H]3C)O[C@@H]2C)C[C@H](O)[C@@H]1O [digoxin]
Geometric mean digoxin AUCinf ([1]; 0.5 mg digoxin alone): 33.2 ng·h/mL
Geometric mean digoxin Cmax ([1]; 0.5 mg digoxin alone): 1.90 ng/mL
Geometric mean digoxin AUCinf [1, 9]: 40.3 ng·h/mL
Geometric mean digoxin Cmax [1, 9]: 3.64 ng/mL
Digoxin median tmax and mean terminal half-life (t1/2) with sotorasib compared to digoxin alone ([1]; 0.5 mg digoxin with 960 mg sotorasib vs alone): similar
safety and tolerability ([1]; single doses of 0.5 mg digoxin alone or with 960 mg sotorasib): safe and well tolerated
increase of digoxin AUCinf [1, 10]: approximately 21%
increase of digoxin Cmax [1, 10]: ~91%

C=CC(=O)N1CCN(c2nc(=O)n(-c3c(C)ccnc3C(C)C)c3nc(-c4c(O)cccc4F)c(F)cc23)[C@@H](C)C1 (atropisomer, axis not shown; (M)) [sotorasib, 6-fluoro-7-(2-fluoro-6-hydroxyphenyl)-(1M)-1-[4-methyl-2-(propan-2-yl)pyridin-3-yl]-4-[(2S)-2-methyl-4-(prop-2-enoyl)piperazin-1-yl]pyrido[2,3-d]pyrimidin-2(1H)-one]
response rate (CRC): 10%
TRAEs of any grade related to the named drug (KRAS G12C mutated CRC; Apr. 23, 2021 data cut, 8 patients on sotorasib 960 mg QD + panitumumab 6 mg/kg IV Q2W): 4 patients
TRAEs leading to dose modification of the named drug (KRAS G12C mutated CRC; Apr. 23, 2021 data cut, 8 patients on the combination): 1 patients
TRAEs of any grade related to the named drug, % of patients (KRAS G12C mutated CRC; [11]): 45.2%
TRAEs of any grade related to the named drug, number of patients (KRAS G12C mutated CRC; [11]): 14 patients
TRAEs resulting in dose modification of the named drug, % of patients (KRAS G12C mutated CRC; [11]): 9.7%
TRAEs resulting in dose modification of the named drug, number of patients (KRAS G12C mutated CRC; [11]): 3 patients
TRAEs of any grade related to the named drug, % of patients (KRAS G12C mutated CRC; [12]): 65%
TRAEs of any grade related to the named drug, number of patients (KRAS G12C mutated CRC; [12]): 26 patients
TRAEs resulting in dose modification of the named drug, % of patients (KRAS G12C mutated CRC; [12]): 15%
TRAEs resulting in dose modification of the named drug, number of patients (KRAS G12C mutated CRC; [12]): 6 patients
mean terminal half-life (t1/2) with omeprazole compared to sotorasib alone ([2]; 960 mg sotorasib with 40 mg omeprazole vs alone, fasted): similar
safety and tolerability ([2]; coadministered with 40 mg omeprazole or alone, healthy subjects): safe and well tolerated
decrease of sotorasib AUCinf [2, 13]: 42%
decrease of sotorasib Cmax [2, 13]: 57%
safety and tolerability ([3]; 960 mg sotorasib with 40 mg famotidine or multiple daily 40 mg omeprazole, healthy subjects): safe and well tolerated
decrease of sotorasib AUC [3, 14]: 38%
decrease of sotorasib Cmax [3, 14]: 35%
decrease of sotorasib AUC [3, 15]: 57%
decrease of sotorasib Cmax [3, 15]: 65%
Geometric mean sotorasib AUCinf ([4]; 960 mg sotorasib alone): 25600 ng·h/mL
Geometric mean sotorasib Cmax ([4]; 960 mg sotorasib alone): 6350 ng/mL
Geometric mean sotorasib Cmax ([4]; 960 mg sotorasib with multiple doses of 600 mg rifampin): 4110 ng/mL
Geometric mean sotorasib AUCinf [4, 16]: 19600 ng·h/mL
Geometric mean sotorasib Cmax [4, 16]: 5340 ng/mL
safety and tolerability ([4]; coadministered with 600 mg rifampin or alone, healthy subjects): safe and well tolerated
CYP3A4 substrate status ([4]; inferred from multiple doses of rifampin): is a CYP3A4 substrate
OATP1B1 substrate status ([4]; inferred from single dose of rifampin): not a substrate of OATP1B1
decrease of sotorasib AUCinf ([4]; multiple doses of rifampin): 51%
decrease of sotorasib Cmax ([4]; multiple doses of rifampin): 35%
effect of single dose of rifampin on sotorasib PK ([4]; single dose of rifampin): did not have a clinically meaningful effect
phosphorylation of extracellular signal-regulated kinase (ERK) [5]: inhibited nearly all detectable phosphorylation
tmax, median (range) ([6]; 180 mg, Day 8): 0.75 (0.50-1.0) hr
tmax, median (range) ([6]; 960 mg, Day 1): 2.0 (0.25-6.0) hr
dose proportionality of exposure ([6]; 180 to 960 mg PO QD, day 1 and day 8): less than dose-proportional
Tmax ([6]; after PO administration, 180 to 960 mg PO QD): 1 to 2 h
Tmax ([6]; human, plasma, oral): 1.9 h
AUC(0-t) [6, 17]: 103000 ng·h/mL
AUC(0-t) ([6]; human, plasma, oral, mean (CV %), monotherapy (n=32, CodeBreaK 100), comparison in Jun. 24, 2022 data cut-off): 65300 ng·h/mL
Cmax [6, 17]: 9710 ng/mL
Cmax ([6]; human, plasma, oral, day 8, monotherapy (CodeBreaK 100), comparison in Aug. 6, 2021 data cut): 6500 ng/mL
Tmax ([6]; human, plasma, oral, tmax, day 8, monotherapy (CodeBreaK 100), comparison in Aug. 6, 2021 data cut): 2 h
Tmax ([6]; human, plasma, oral, tmax, median (range), monotherapy (n=32, CodeBreaK 100), comparison in Jun. 24, 2022 data cut-off): 2 h
accumulation with multiple dosing ([6]; multiple PO QD dosing for 8 days): no accumulation
AUC0-24h ([7]; Aug. 6, 2021 data cut, day 1, combination therapy with panitumumab): 77200 ng·h/mL
AUC0-24h, mean (CV %) [7, 18]: 65.8 (56%) h*μg/mL
Cmax, mean (CV %) [7, 18]: 9.64 (55%) μg/mL

Cc1ncc2n1-c1ccc(Cl)cc1C(c1ccccc1F)=NC2 [midazolam]
decrease of midazolam AUV [8]: 53%
decrease of midazolam Cmax [8]: 48%
